{"source": "paper PMC12040169", "about": "(PLOS Biology, 2025)", "experiment": "in vitro", "conditions": "human, hela cells, % viability", "data": [{"smiles": "O=C(CSc1nnc(-c2ccc(F)cc2)n1-c1ccccc1)Nc1cccc2ccccc12", "note": "[CBK267592]", "values": [{"measurement": "viability at 28.5 h, 10 µM", "result": 89.8, "unit": "%"}]}, {"smiles": "CC(C)[C@@H](CO)Nc1nc(-c2cccc3ccccc23)cnc1N", "note": "[CBK063725]", "values": [{"measurement": "viability at 28.5 h, 10 µM", "result": 95.2, "unit": "%"}]}, {"smiles": "O=C(Nc1cncc(OC2CCNCC2)n1)c1ccoc1", "note": "[CBK036366T]", "values": [{"measurement": "viability at 28.5 h, 10 µM", "result": 92, "unit": "%"}]}, {"smiles": "O=C(Nc1ccccc1C(=O)c1ccccc1)c1ccccn1", "note": "[CBK288150]", "values": [{"measurement": "viability at 28.5 h, 10 µM", "result": 89.1, "unit": "%"}]}, {"smiles": "Cc1cn2c3c(=O)n(CCN4CCOCC4)c(=O)n(C)c3nc2n1CC1CCCO1", "note": "(centres unmarked) [CBK269985]", "values": [{"measurement": "viability at 28.5 h, 10 µM", "result": 92.3, "unit": "%"}]}, {"smiles": "Cc1ccc(NC(=O)Cc2cn(C)c3ccccc23)c(C)n1", "note": "[CBK200298]", "values": [{"measurement": "viability at 28.5 h, 10 µM", "result": 61.9, "unit": "%"}]}, {"smiles": "O=C(/C=C/c1ccc2c(c1)OCO2)NCCSCc1c(F)cccc1Cl", "note": "[CBK265239]", "values": [{"measurement": "viability at 28.5 h, 10 µM", "result": 90.3, "unit": "%"}]}, {"smiles": "CCCc1ccc(S(=O)(=O)n2ccn(-c3ccc(Oc4ccccc4)cc3)c2=O)cc1", "note": "[CBK106648]", "values": [{"measurement": "viability at 28.5 h, 10 µM", "result": 107, "unit": "%"}]}, {"smiles": "CCOc1cc(/C=C2\\SC(=N)NC2=O)ccc1OCc1ccc(Br)cc1", "note": "[CBK263813]", "values": [{"measurement": "viability at 28.5 h, 10 µM", "result": 97.7, "unit": "%"}]}, {"smiles": "COc1ccc(C(NC(=O)N2CCN(C(=O)NCc3ccccc3Cl)CC2)c2ccccc2C)cn1", "note": "(centres unmarked) [CBK081471]", "values": [{"measurement": "viability at 28.5 h, 10 µM", "result": 88.7, "unit": "%"}]}, {"smiles": "Nc1ncc(-c2cccc(O)c2)nc1N1CCC(C(=O)O)CC1", "note": "[CBK063405]", "values": [{"measurement": "viability at 28.5 h, 10 µM", "result": 85.3, "unit": "%"}]}, {"smiles": "CC(C)Nc1cncc(OC2CCN(C)C2)n1", "note": "(centres unmarked) [CBK115598]", "values": [{"measurement": "viability at 28.5 h, 10 µM", "result": 90.8, "unit": "%"}]}, {"smiles": "COc1cc(OC)nc(C(NC(=O)C2CCN(Cc3ccc(N(C)C)cc3)CC2)c2ccc(F)cc2)n1", "note": "(centres unmarked) [CBK148204]", "values": [{"measurement": "viability at 28.5 h, 10 µM", "result": 88.9, "unit": "%"}]}, {"smiles": "O=C1CNC(=O)C2(C/C=C/C[C@H]3COCC[C@@H]3N1)CCN(Cc1ccc(Cl)cn1)CC2", "note": "[CBK292132]", "values": [{"measurement": "viability at 28.5 h, 10 µM", "result": 91, "unit": "%"}]}, {"smiles": "CN(C)S(=O)(=O)N(CC(=O)NCC1CCCO1)c1ccccc1", "note": "(centres unmarked) [CBK268192]", "values": [{"measurement": "viability at 28.5 h, 10 µM", "result": 103, "unit": "%"}]}, {"smiles": "O=C(c1ccco1)N1CCN(c2ccc(-c3ccc(F)c(Cl)c3)cn2)CC1", "note": "[CBK037683]", "values": [{"measurement": "viability at 28.5 h, 10 µM", "result": 93.9, "unit": "%"}]}, {"smiles": "Cc1c(C)n(C)c2ccc(C(=O)NCCC(=O)N3CCOCC3)cc12", "note": "[CBK281669]", "values": [{"measurement": "viability at 28.5 h, 10 µM", "result": 65.8, "unit": "%"}]}, {"smiles": "CCc1nc2ccccc2n1CC(=O)N(Cc1cccnc1)C1CC1", "note": "[CBK304064]", "values": [{"measurement": "viability at 28.5 h, 10 µM", "result": 107, "unit": "%"}]}, {"smiles": "COCc1cn([C@H]2CO[C@H]3[C@@H]2OC[C@H]3OC)nn1", "note": "[CBK289490]", "values": [{"measurement": "viability at 28.5 h, 10 µM", "result": 89.9, "unit": "%"}]}, {"smiles": "COC1(CNC(=O)c2cc3ccccc3[nH]2)CCSC1", "note": "(centres unmarked) [CBK304605]", "values": [{"measurement": "viability at 28.5 h, 10 µM", "result": 97.9, "unit": "%"}]}, {"smiles": "CCCC/C=C/c1cncc(NC(C)CCCC(C)(C)O)n1", "note": "(centres unmarked) [CBK065505]", "values": [{"measurement": "viability at 28.5 h, 10 µM", "result": 104, "unit": "%"}]}, {"smiles": "O=C(O)c1cccc(Sc2nc3cc(Cl)c(Cl)cc3nc2N2CCCC2)c1", "note": "[CBK093588]", "values": [{"measurement": "viability at 28.5 h, 10 µM", "result": 118, "unit": "%"}]}, {"smiles": "O=C(NCCn1nc(-c2ccco2)ccc1=O)c1ccccc1F", "note": "[CBK283742]", "values": [{"measurement": "viability at 28.5 h, 10 µM", "result": 92.5, "unit": "%"}]}, {"smiles": "O=C(c1cc(C2CC2)on1)N1CCc2ncc(Cl)cc2C1", "note": "[CBK284855]", "values": [{"measurement": "viability at 28.5 h, 10 µM", "result": 106, "unit": "%"}]}, {"smiles": "O=C(O)CCNC1CC(=O)N(Cc2ccccc2)C1=O", "note": "(centres unmarked) [CBK287246]", "values": [{"measurement": "viability at 28.5 h, 10 µM", "result": 99, "unit": "%"}]}, {"smiles": "COCCNc1nc(-c2ccccc2OC)ccc1C(=O)NCCNC(C)=O", "note": "[CBK105974]", "values": [{"measurement": "viability at 28.5 h, 10 µM", "result": 100, "unit": "%"}]}, {"smiles": "COc1cccc(-c2cnc(N)c(N3CCN(CCN(C)C)CC3)n2)c1", "note": "[CBK063561]", "values": [{"measurement": "viability at 28.5 h, 10 µM", "result": 108, "unit": "%"}]}, {"smiles": "CC(C)(C)C(=O)CSc1nnc(-c2ccccc2)n1Cc1ccccc1", "note": "[CBK264960]", "values": [{"measurement": "viability at 28.5 h, 10 µM", "result": 108, "unit": "%"}]}, {"smiles": "CCOC(=O)CSc1nc2ccccc2nc1C(F)(F)F", "note": "[CBK107200]", "values": [{"measurement": "viability at 28.5 h, 10 µM", "result": 92.8, "unit": "%"}]}, {"smiles": "Cc1cc(C(=O)N2CCN(Cc3ccc4c(c3)OCO4)CC2)nn1C", "note": "[CBK074832]", "values": [{"measurement": "viability at 28.5 h, 10 µM", "result": 111, "unit": "%"}]}, {"smiles": "CCN(CCc1ccccn1)S(=O)(=O)c1ccc(OC(F)(F)F)cc1", "note": "[CBK044968]", "values": [{"measurement": "viability at 28.5 h, 10 µM", "result": 92.4, "unit": "%"}]}, {"smiles": "Cc1nn(CC(=O)N2CCN(Cc3ccccn3)CC2)c(C)c1Cl", "note": "[CBK305978]", "values": [{"measurement": "viability at 28.5 h, 10 µM", "result": 93.8, "unit": "%"}]}, {"smiles": "O=C1OC(c2ccc(N3C(=O)c4cccc5cccc(c45)C3=O)cc2)(c2ccc(N3C(=O)c4cccc5cccc(c45)C3=O)cc2)c2ccccc21", "note": "[CBK261845]", "values": [{"measurement": "viability at 28.5 h, 10 µM", "result": 95.3, "unit": "%"}]}, {"smiles": "O=C1CC(c2ccccc2)CC(=O)N1c1nnn[nH]1", "note": "[CBK291154]", "values": [{"measurement": "viability at 28.5 h, 10 µM", "result": 85.5, "unit": "%"}]}, {"smiles": "Cc1ccc(C(NC(=O)C2CCN(Cc3ccc(Cl)cc3)CC2)c2ccccn2)cc1", "note": "(centres unmarked) [CBK148007]", "values": [{"measurement": "viability at 28.5 h, 10 µM", "result": 103, "unit": "%"}]}]}
